According to ChEMBL document CHEMBL1201862, “PubChem BioAssay data set” (2004):
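Compound exposure: 48 hours, 5 concentrations, 96-well plates. The concentration for 50% growth inhibition is given as GI50.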 Active and inactive are the calls of the source. Cut-off read from the data, not from the text of the source: active = GI50 up to about 1.1 µM and inactive = higher.

Assays:
Test in all cases: NCI-60 cell line screen, 48 h
Malme-3M = system: Malme-3M
NCI/ADR-RES = system: NCI/ADR-RES
HCT-116 = system: HCT-116
RPMI-8226 = system: RPMI-8226
NCI-H226 = system: NCI-H226
KM12 = system: KM12
SR = system: SR
TK-10 = system: TK-10
Hs-578T = system: Hs-578T
SNB-75 = system: SNB-75
M14 = system: M14
UO-31 = system: UO-31
UACC-257 = system: UACC-257
SF-539 = system: SF-539
CAKI-1 = system: CAKI-1
SK-OV-3 = system: SK-OV-3
ACHN = system: ACHN
SK-MEL-5 = system: SK-MEL-5
RXF 393 = system: RXF 393

Measured: GI50

O=C(CCCCCNC(=O)c1ccc(Cl)cc1)NO
inactive: Malme-3M 2.61 µM | NCI/ADR-RES 1.15 µM | HCT-116 2.56 µM | RPMI-8226 3.09 µM | NCI-H226 15.8 µM | KM12 6.59 µM | SR 2.54 µM | TK-10 3.49 µM | Hs-578T 8.99 µM | SNB-75 1.49 µM | M14 5.71 µM | UO-31 6.53 µM | UACC-257 2.72 µM | SF-539 5.55 µM | CAKI-1 4.05 µM | SK-OV-3 6.38 µM | ACHN 5.19 µM | SK-MEL-5 3.24 µM | RXF 393 3.66 µM

N#C/C(=C\N1CCNC1=S)C(=O)c1ccc2ccccc2c1
inactive: NCI/ADR-RES > 100 µM | HCT-116 > 100 µM | RPMI-8226 89.7 µM | NCI-H226 > 100 µM | KM12 > 100 µM | SR 71.4 µM | TK-10 > 100 µM | Hs-578T > 100 µM | SNB-75 > 100 µM | M14 > 100 µM | UO-31 > 100 µM | UACC-257 > 100 µM | SF-539 > 100 µM | CAKI-1 > 100 µM | SK-OV-3 > 100 µM | ACHN > 100 µM | SK-MEL-5 > 100 µM | RXF 393 > 100 µM

COc1ccccc1/C=C/C1=NN(c2cccc(S(=O)(=O)O)c2)C2(C1)C(Cl)C(=O)N2c1nc2ccccc2s1 (stereo not given)
inactive: Malme-3M > 100 µM | NCI/ADR-RES > 100 µM | HCT-116 61.9 µM | RPMI-8226 19 µM | NCI-H226 28 µM | KM12 51.6 µM | SR 22.1 µM | TK-10 45.1 µM | Hs-578T > 100 µM | SNB-75 42.8 µM | M14 > 75.3 µM | UO-31 16.9 µM | UACC-257 56.8 µM | SF-539 58.2 µM | CAKI-1 31.8 µM | SK-OV-3 > 100 µM | ACHN 57.3 µM | SK-MEL-5 28.6 µM | RXF 393 31.3 µM

CCCCCNC1=CC(=O)c2ccccc2C1=O
inactive: Malme-3M 34.5 µM | NCI/ADR-RES 45.3 µM | HCT-116 22.9 µM | RPMI-8226 > 91.8 µM | NCI-H226 31.6 µM | KM12 > 100 µM | SR 46.6 µM | TK-10 30.2 µM | Hs-578T 27.8 µM | SNB-75 22.2 µM | M14 > 62.4 µM | UO-31 > 51.6 µM | UACC-257 > 60.5 µM | SF-539 20.6 µM | CAKI-1 33.7 µM | SK-OV-3 > 51.4 µM | ACHN 58.9 µM | SK-MEL-5 17.9 µM | RXF 393 21.7 µM

COC(=O)C(Cc1c(C2Nc3ccccc3C2CC(NC(=O)CNC(C)=O)C(=O)OC)[nH]c2ccccc12)NC(=O)CNC(C)=O (stereo not given)
inactive: Malme-3M > 100 µM | NCI/ADR-RES > 100 µM | HCT-116 > 100 µM | RPMI-8226 > 100 µM | NCI-H226 > 100 µM | KM12 > 100 µM | SR 16.3 µM | TK-10 > 100 µM | Hs-578T > 72.6 µM | SNB-75 7.82 µM | M14 > 100 µM | UO-31 > 100 µM | UACC-257 > 100 µM | SF-539 > 100 µM | CAKI-1 > 100 µM | SK-OV-3 > 100 µM | ACHN > 100 µM | SK-MEL-5 > 100 µM | RXF 393 > 100 µM

Nc1nc(-c2ccccc2)cc(-c2ccc(OCc3ccccc3)cc2O)n1
inactive: Malme-3M 24.2 µM | NCI/ADR-RES 29.4 µM | HCT-116 28.8 µM | RPMI-8226 22.7 µM | NCI-H226 46.1 µM | KM12 34.4 µM | SR 39.8 µM | TK-10 24.7 µM | Hs-578T 37.1 µM | SNB-75 67.6 µM | M14 30.8 µM | UO-31 38.1 µM | UACC-257 48.8 µM | SF-539 26 µM | CAKI-1 57.1 µM | ACHN 31.3 µM | SK-MEL-5 17.5 µM | RXF 393 27.5 µM

CC(C)CC(=O)NC(NC(C)C)(C(F)(F)F)C(F)(F)F
inactive: Malme-3M > 100 µM | NCI/ADR-RES > 100 µM | HCT-116 > 100 µM | RPMI-8226 > 100 µM | NCI-H226 > 100 µM | KM12 > 100 µM | SR > 100 µM | TK-10 > 100 µM | Hs-578T > 100 µM | SNB-75 > 100 µM | UO-31 > 100 µM | UACC-257 > 100 µM | SF-539 > 100 µM | CAKI-1 > 100 µM | ACHN > 100 µM | SK-MEL-5 > 100 µM | RXF 393 > 100 µM

COC(=O)NNC(c1ccc(Cl)cc1)c1ccc(Cl)cc1
inactive: Malme-3M 20.6 µM | NCI/ADR-RES 18.2 µM | HCT-116 15.7 µM | RPMI-8226 20.9 µM | NCI-H226 17.3 µM | KM12 17 µM | SR 20.2 µM | TK-10 17.6 µM | Hs-578T 20.4 µM | SNB-75 26.2 µM | M14 15.7 µM | UO-31 12.5 µM | UACC-257 18.2 µM | SF-539 20.7 µM | CAKI-1 16.1 µM | SK-OV-3 23.7 µM | SK-MEL-5 16.5 µM | RXF 393 10.5 µM

O=C(/N=S(/NC(=O)c1ccccc1)C(Cl)(Cl)Cl)c1ccccc1 (stereo not given)
inactive: Malme-3M 17.5 µM | NCI/ADR-RES 15.5 µM | HCT-116 15.5 µM | RPMI-8226 41.2 µM | NCI-H226 25.6 µM | KM12 > 65 µM | SR 17.1 µM | TK-10 > 100 µM | Hs-578T 40.6 µM | SNB-75 40.6 µM | M14 10.5 µM | UO-31 16.3 µM | UACC-257 35.2 µM | SF-539 21.1 µM | CAKI-1 20.9 µM | SK-OV-3 > 31.6 µM | ACHN 18.4 µM | SK-MEL-5 14.3 µM | RXF 393 12.1 µM

O=C(Nc1ccc(Cl)cc1)NS(=O)(=O)c1coc2ccccc2c1=O
inactive: Malme-3M > 10 µM | NCI/ADR-RES > 10 µM | HCT-116 > 10 µM | RPMI-8226 > 10 µM | NCI-H226 > 10 µM | KM12 > 10 µM | SR > 10 µM | TK-10 > 10 µM | Hs-578T > 10 µM | SNB-75 > 10 µM | M14 > 10 µM | UACC-257 > 10 µM | SF-539 > 10 µM | CAKI-1 > 10 µM | SK-OV-3 > 10 µM | ACHN > 10 µM | SK-MEL-5 > 10 µM | RXF 393 > 10 µM

COC(=O)C(NC(=O)C12CCC(C)(C(=O)O1)C2(C)C)c1cc(C(C)(C)C)c(O)c(C(C)(C)C)c1 (stereo not given)
inactive: Malme-3M > 100 µM | NCI/ADR-RES > 100 µM | HCT-116 64.3 µM | RPMI-8226 14.7 µM | NCI-H226 > 100 µM | KM12 23.5 µM | SR 68.2 µM | TK-10 57.7 µM | Hs-578T 94 µM | SNB-75 > 100 µM | M14 > 100 µM | UO-31 95.9 µM | SF-539 > 100 µM | CAKI-1 > 100 µM | SK-OV-3 > 100 µM | ACHN > 100 µM | SK-MEL-5 21.7 µM | RXF 393 83.2 µM

COc1ccc(N2CCN(Cc3c(C(C)=O)[n+]([O-])c4ccccc4[n+]3[O-])CC2)cc1
inactive: Malme-3M 12 µM | NCI/ADR-RES 24.5 µM | HCT-116 49.5 µM | RPMI-8226 > 100 µM | NCI-H226 29 µM | KM12 48.1 µM | SR 37.8 µM | TK-10 9.29 µM | Hs-578T 25.2 µM | SNB-75 15.6 µM | M14 45.5 µM | UO-31 64.6 µM | UACC-257 29.8 µM | CAKI-1 > 100 µM | SK-OV-3 32.3 µM | ACHN 22 µM | SK-MEL-5 37.1 µM | RXF 393 17 µM

CCOC(=O)[C@@H](NC(=O)OC(C)(C)C)[C@@H](O)C(=O)OCC
inactive: Malme-3M > 100 µM | NCI/ADR-RES > 100 µM | HCT-116 > 100 µM | RPMI-8226 > 100 µM | NCI-H226 > 100 µM | KM12 > 100 µM | SR > 100 µM | TK-10 > 100 µM | Hs-578T > 100 µM | SNB-75 > 100 µM | M14 > 100 µM | UO-31 > 100 µM | UACC-257 > 100 µM | CAKI-1 > 100 µM | SK-OV-3 > 100 µM | ACHN > 100 µM | SK-MEL-5 > 100 µM | RXF 393 > 100 µM

C=C1C(=O)O[C@H]2[C@H]3O[C@@H](C[C@@H]12)[C@](C)(O)CC[C@@H]1O[C@@]1(C)CCC[C@H]3C
inactive: Malme-3M 12 µM | NCI/ADR-RES 26.9 µM | HCT-116 14.2 µM | RPMI-8226 47.2 µM | NCI-H226 23.3 µM | KM12 20 µM | SR 16.5 µM | TK-10 17.1 µM | Hs-578T 30.3 µM | SNB-75 18.5 µM | M14 12 µM | UO-31 22.2 µM | UACC-257 22.9 µM | SF-539 18.7 µM | CAKI-1 14.2 µM | SK-OV-3 29.4 µM | ACHN 15.5 µM | SK-MEL-5 14.7 µM | RXF 393 13 µM

CC(CC[C@@H](O)C(C)(C)O)C1[C@@H](O)CC2(C)C3CC(O)C4C(C)(C)[C@@H](OC5OC(CO)C(O)C(O)C5O)CC[C@@]45C[C@@]35CC[C@]12C (stereo not given in full)
inactive: Malme-3M > 10 µM | NCI/ADR-RES > 10 µM | HCT-116 > 10 µM | RPMI-8226 > 10 µM | NCI-H226 8.79 µM | KM12 > 10 µM | SR > 10 µM | TK-10 > 10 µM | Hs-578T > 10 µM | SNB-75 > 10 µM | M14 > 10 µM | UACC-257 > 10 µM | SF-539 > 10 µM | CAKI-1 > 10 µM | SK-OV-3 > 10 µM | ACHN > 10 µM | SK-MEL-5 > 10 µM | RXF 393 > 10 µM
